Assay [1] concerns Trypanosoma cruzi. As to the kind of experiment: In vitro antiparasitic activity against Trypanosoma cruzi (amastigotes). Format: functional, organism-based.
Assay [2] deals with Trypanosoma cruzi. The assay can be described thus: In vitro antiparasitic activity against Trypanosoma cruzi (epimastigotes). Format: functional, organism-based.
In assay [3] the test system is Trypanosoma cruzi. The assay can be described thus: In vitro […] antiparasitic activity against Trypanosoma cruzi at 70 uM (amastigotes). Format: functional.
Assay [4] relates to Trypanosoma cruzi. As to the kind of experiment: In vitro […] antiparasitic activity against Trypanosoma cruzi at 50 uM (amastigotes). It counts as functional.

These results are taken from ChEMBL document CHEMBL1134235, “Bisphosphonates derived from fatty acids are potent growth inhibitors of Trypanosoma cruzi” (Bioorg Med Chem Lett, 2001).

As a reminder, the IC50 is the concentration that inhibits the measured activity by half. A low value points to greater potency. One may read the inhibition as the change of the read-out against control, counted positive when it falls.

For the compound `CCCC(O)(P(=O)(O)O)P(=O)(O)O`, the figures for the IC50 with Trypanosoma cruzi [1] and with Trypanosoma cruzi [2] were 21.4 µM and over 70 µM, respectively.

Regarding `CCCCCCCCC(O)(P(=O)(O)O)P(=O)(O)O`, the half-inhibitory concentration (IC50) in the assay on Trypanosoma cruzi [1] is 65.8 µM; in the assay with Trypanosoma cruzi [2], over 70 µM. In the assay on Trypanosoma cruzi [1], `CCCCCCCCCCCCCC(O)(P(=O)(O)O)P(=O)(O)O` returned an IC50 of 53.5 µM. For the compound `NCCCC(O)(P(=O)(O)O)P(=O)(O)O` [ALENDRONIC ACID], in the assay on Trypanosoma cruzi [1], the IC50 was determined as 65 µM.

On to `CCCCCC(O)(P(=O)(O)O)P(=O)(O)O`, for which, in the assay on Trypanosoma cruzi [3], testing at 70 µM gave an inhibition of 34%. In addition, the values for the IC50 in the assay with Trypanosoma cruzi [1] and with Trypanosoma cruzi [2] were 70 µM and over 70 µM, respectively.

As to `O=P(O)(O)C(O)(COc1ccccc1)P(=O)(O)O`, the inhibition at 70 µM in the assay with Trypanosoma cruzi [3] was determined as 16%. The IC50 in the assay with Trypanosoma cruzi [1] was over 70 µM. `NCCC(O)(P(=O)(O)O)P(=O)(O)O` [PAMIDRONIC ACID]: in the assay with Trypanosoma cruzi [1], the half-maximal inhibitory concentration (IC50) was found to be 65 µM.

Turning to `O=P(O)(O)C(O)(COc1ccc(Cl)cc1Cl)P(=O)(O)O`, the inhibition at 50 µM with Trypanosoma cruzi [4] was found to be 37%. In addition, the IC50 in the assay on Trypanosoma cruzi [1] was over 50 µM. Consider `CCCCCCCCCC(O)(P(=O)(O)O)P(=O)(O)O`, for which, in the assay with Trypanosoma cruzi [3], the inhibition at 70 µM amounted to 10%. Moreover, the half-inhibitory concentration (IC50) in the assay on Trypanosoma cruzi [1] and in the assay with Trypanosoma cruzi [2] was over 70 µM throughout. As for `CCCCCCC(O)(P(=O)(O)O)P(=O)(O)O`, the results for the concentration for half-maximal inhibition (IC50) in the assay on Trypanosoma cruzi [1] and with Trypanosoma cruzi [2] were 18.1 µM and over 70 µM, respectively.

For the compound `CCCCCCCC(O)(P(=O)(O)O)P(=O)(O)O`, the inhibition at 70 µM in the assay on Trypanosoma cruzi [3] came to 41%. Besides, the IC50 with Trypanosoma cruzi [1] and in the assay with Trypanosoma cruzi [2] was over 70 µM in each case. `O=P(O)(O)C(O)(Cc1cccnc1)P(=O)(O)O` [RISEDRONIC ACID] displayed an IC50 in the assay with Trypanosoma cruzi [1] of 300 µM. Regarding `O=P(O)(O)C(O)(COc1ccc(Oc2ccccc2)cc1)P(=O)(O)O`, the inhibition at 70 µM in the assay on Trypanosoma cruzi [3] worked out at 23%. The same compound yielded an IC50 with Trypanosoma cruzi [1] of over 50 µM.
